Test results as given in patent publication US7528175B2, “Method of treating airway diseases with beta-adrenergic inverse agonists” (Inverseon, Inc., priority 2005, dated 2009).

Experiments:
asthmatic mice = assay: BALF cell number and type (Example 11); assay type: in vivo; settings: vs nontreated asthmatic mice
Excerpt: The same mice as described in Example 1 underwent bronchoalveolar lavage (BAL) to determine the total number and type of immune system cells in the lung. BAL Fluid (BALF) was irrigated and collected from the lungs of mice as previously described (Evans K L, Bond R A, Corry […]. Frequency dependence of respiratory system mechanics during induced constriction in a murine model of asthma. J Appl Physiol. 2003 January;94(1):245-52). […] The number of neutrophils was increased in nontreated asthmatic mice compared to mice that served as controls for chronic beta-blocker treatments. In comparison to their notable effects on airway responsiveness, the β-AR ligands tested had very little effect on BALF cellularity. […] FIG. 12 has 3 panels of cell number and type of cells from the bronchoalveolar lavage fluid of asthmatic mice treated acutely or chronically with beta adrenergic ligands. Cells were identified as eosinophils (black bars), macrophages (hatched bars), neutrophils (grey bars), and lymphocytes (white bars) by standard morphologic criteria. At least 200 cells were counted per cytospin preparation, and the absolute number of each cell type was calculated based on the volume of fluid recovered from the lavage. […] Data are expressed as mean ±SEM and are representative of 6-25 animals per group. #P<0.05 compared to NTX, *P<0.05 compared to control (ANOVA).

[1] = test system: ovalbumin-sensitized, allergen-challenged mice; assay: Acute nadolol and aminophylline, methacholine-induced bronchoconstriction; assay type: in vivo; settings: nadolol 0.72 mg/kg i.p. 15 minutes prior to methacholine
Method: At time point 1 (time=−10 min) baseline airway resistance of the mice was determined.

SMILES: CC(C)(C)NCC(O)COc1cccc2c1CC(O)C(O)C2 (stereo not drawn) [nadolol]
- BALF cellularity (asthmatic mice; acute treatment (15 minutes)): significant elevations in the number of neutrophils
- BALF cellularity (asthmatic mice; chronic treatment (28 days)): significant elevations in the number of neutrophils
- baseline airway resistance [1]: same baseline airway resistance as non-drug treated sensitized and allergen-challenged mice
